System: A375 multi-cell spheroids with HUVEC/MSC, viability
Assay: Anticancer human tumor A375 cell line growth inhibition [GQUAD];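 note: spheroids exposed to compounds for seven days before readout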
Details: for IC50: curve of first compound; for viability, T/C: stronger effect = lower value
Source text: DNA G-quadruplex Stabilizer Agents in Combinations in Complex Spheroids
A high-throughput screen of multi-cell type tumor spheroids was designed to identify active combinations of DNA G-quadruplex stabilizer agents and targeted small molecules. Complex spheroids include a stromal component modeled by human endothelial cells (HUVEC) and fibroblasts modeled by human mesenchymal stem cells (MSCs). The concentration ranges selected for each drug and investigational agent were based upon clinically achievable concentrations if the clinical Cmax of the agent was known.
Compounds. The drugs and investigational agents: pidnarulex (CX-5461; NSC782164), APTO-253 (NSC789042), BRACO-19 (NSC847499), peposertib (NSC802822), ceralasertib (NSC780249), elimusertib (NSC800525), camonsertib (NSC841442), AZD-1390 (NSC803789), olaparib (NSC753686), talazoparib (NSC767125), ART-558 (NSC835418), sotorasib (NSC818433), MRTX-1133 (NSC836407), SN-38 (NSC673596), topotecan (NSC609699), etoposide (NSC141540), doxorubicin (NSC123127), gemcitabine (NSC613327), 5-fluorouracil (NSC19893), paclitaxel (NSC125973), vemurafenib (NSC761431), panobinostat (NSC761190), R-306465 (JNJ-16241199; NSC773264), adavosertib (NSC754352), TP-3654 (NSC805149), carboplatin (NSC241240), KSQ-4279 (NSC840948), and staurosporine (NSC755774) were obtained from the National Cancer Institute (NCI) Developmental Therapeutics Program Chemical Repository (34). The FDA-approved anticancer drug set is available from the NCI Developmental Therapeutics Program. […] The stock solutions were prepared in dimethyl sulfoxide (DMSO, Sigma-Aldrich, St. Louis, MO, cat. D2650) at 800-fold the tested concentration and stored at -70 degrees C prior to their use. All drugs and investigational agents were tested over a range starting from a high concentration at or near the clinical Cmax and decreasing in half-log increments. If the clinical Cmax for an agent had not been determined, the highest concentration tested was 10 microM.
2.3 Cell Culture. All cells were maintained in an incubator at 37 degrees C and 5% CO2 with 95% humidity. The PDC lines were cultured according to standard operating procedures established by the NCI PDMR. All PDCs were thawed and cultured in Matrigel-coated flasks prepared with a working solution of 1X Ham's F-12 nutrient mix, without supplementation (Invitrogen, cat. 11765054), 100 U/mL penicillin-streptomycin (Invitrogen, cat. 15140122), and 2.5% Matrigel (Corning Inc., cat. 354248) for the first three passages. The 857933-349-R-J2-PDC line was cultured in 6C/Colon 1B media, which includes advanced DMEM/F-12 (Thermo Fisher Scientific, cat. 12634028), 10 mM HEPES (Thermo Fisher Scientific, cat. 15630080), 1X GlutaMAX supplement (Thermo Fisher Scientific, cat. 35050061), 0.1 mg/mL primocin (InvivoGen, cat. ant-pm-2), 10% defined fetal bovine serum, heat inactivated (HyClone Laboratories Inc., cat. SH30070.03HI), 50% L-WRN conditioned media (ATCC, cat. CRL-3276), 1.25 mM N-Acetyl-L-cysteine (Sigma-Aldrich, cat. A9165), 10 mM nicotinamide (Sigma-Aldrich, cat. N0636), 1X B-27 supplement (Thermo Fisher Scientific, cat. 17504044), 1X N-2 supplement (Thermo Fisher Scientific, cat. 17502048), 10 microM Y-27632 dihydrochloride (Tocris Bioscience, cat. 1254), and 50 ng/mL human EGF recombinant protein (Thermo Fisher Scientific, cat. PHG0311). The 485176-168-R4-J1-PDC line was cultured in Panc media, which includes all 6C/Colon 1B media components plus 100 ng/mL human FGF-10 (Thermo Fisher Scientific, cat. 100-26), 500 nM SB-431542 (Selleckchem, cat. S1067), and gastrin (Tocris, cat. 3006).
[…]

Q: For `C#Cc1c(F)ccc2cc(O)cc(-c3ncc4c(N5CC6CCC(C5)N6)nc(OCC56CCCN5CC(F)C6)nc4c3F)c12` (configuration not stated) + Cc1cnc(CNC(=O)c2c(=O)c3ccc(N4CCCN(C)CC4)nc3n3c2sc2ccccc23)cn1, which IC50 (second compound 0.0316 µM) is on record?
A: Its IC50 is greater than 10 µM.

Q: What about the IC50 (second compound 0.1 µM) of the same molecule?
A: Its IC50 is greater than 10 µM.

Q: What about the IC50 (second compound 0.316 µM) of the same molecule?
A: Its IC50 is greater than 10 µM.

Q: And the IC50 (second compound 1 µM)?
A: The IC50 was less than 0.0316 µM.

Q: And the IC50 (second compound 3.16 µM)?
A: The IC50 was less than 0.0316 µM.

Q: And the IC50 (second compound 10 µM)?
A: The IC50 was less than 0.0316 µM.

Q: What about the viability, T/C (second compound 0.0316 µM, first compound 0.0316 µM) of the same molecule?
A: The viability, T/C was 106%.

Q: What about the viability, T/C (second compound 0.0316 µM, first compound 0.1 µM) of the same molecule?
A: The viability, T/C was 109%.

Q: What about the viability, T/C (second compound 0.0316 µM, first compound 0.316 µM) of the same molecule?
A: The viability, T/C was 121%.

Q: And the viability, T/C (second compound 0.0316 µM, first compound 1 µM)?
A: Its viability, T/C is 120%.

Q: What about the viability, T/C (second compound 0.0316 µM, first compound 3.16 µM) of the same molecule?
A: The viability, T/C was 117%.

Q: What about the viability, T/C (second compound 0.0316 µM, first compound 10 µM) of the same molecule?
A: The viability, T/C was 117%.

Q: What about the viability, T/C (second compound 0.1 µM, first compound 0.0316 µM) of the same molecule?
A: Its viability, T/C is 79%.

Q: What about the viability, T/C (second compound 0.1 µM, first compound 0.1 µM) of the same molecule?
A: Its viability, T/C is 74.6%.

Q: And the viability, T/C (second compound 0.1 µM, first compound 0.316 µM)?
A: The viability, T/C was 93.8%.

Q: What about the viability, T/C (second compound 0.1 µM, first compound 1 µM) of the same molecule?
A: Its viability, T/C is 85.1%.

Q: What about the viability, T/C (second compound 0.1 µM, first compound 3.16 µM) of the same molecule?
A: The viability, T/C was 88.3%.

Q: What about the viability, T/C (second compound 0.1 µM, first compound 10 µM) of the same molecule?
A: The viability, T/C was 96%.

Q: What about the viability, T/C (second compound 0.316 µM, first compound 0.0316 µM) of the same molecule?
A: The viability, T/C was 59.1%.

Q: And the viability, T/C (second compound 0.316 µM, first compound 0.1 µM)?
A: Its viability, T/C is 51.8%.

Q: And the viability, T/C (second compound 0.316 µM, first compound 0.316 µM)?
A: The viability, T/C was 64.3%.

Q: And the viability, T/C (second compound 0.316 µM, first compound 1 µM)?
A: The viability, T/C was 55.1%.

Q: And the viability, T/C (second compound 0.316 µM, first compound 3.16 µM)?
A: Its viability, T/C is 58.6%.

Q: And the viability, T/C (second compound 0.316 µM, first compound 10 µM)?
A: The viability, T/C was 47.9%.

Q: And the viability, T/C (second compound 1 µM, first compound 0.0316 µM)?
A: Its viability, T/C is 42.6%.

Q: And the viability, T/C (second compound 1 µM, first compound 0.1 µM)?
A: Its viability, T/C is 42.6%.

Q: And the viability, T/C (second compound 1 µM, first compound 0.316 µM)?
A: The viability, T/C was 39.4%.

Q: And the viability, T/C (second compound 1 µM, first compound 1 µM)?
A: Its viability, T/C is 40%.

Q: And the viability, T/C (second compound 1 µM, first compound 3.16 µM)?
A: Its viability, T/C is 37.4%.

Q: And the viability, T/C (second compound 1 µM, first compound 10 µM)?
A: The viability, T/C was 38.8%.

Q: What about the viability, T/C (second compound 3.16 µM, first compound 0.0316 µM) of the same molecule?
A: Its viability, T/C is 40.6%.

Q: What about the viability, T/C (second compound 3.16 µM, first compound 0.1 µM) of the same molecule?
A: Its viability, T/C is 36.9%.

Q: And the viability, T/C (second compound 3.16 µM, first compound 0.316 µM)?
A: The viability, T/C was 36.6%.

Q: What about the viability, T/C (second compound 3.16 µM, first compound 1 µM) of the same molecule?
A: Its viability, T/C is 34.7%.

Q: What about the viability, T/C (second compound 3.16 µM, first compound 3.16 µM) of the same molecule?
A: Its viability, T/C is 36.3%.

Q: What about the viability, T/C (second compound 3.16 µM, first compound 10 µM) of the same molecule?
A: Its viability, T/C is 33.7%.

Q: What about the viability, T/C (second compound 10 µM, first compound 0.0316 µM) of the same molecule?
A: The viability, T/C was 25.7%.

Q: What about the viability, T/C (second compound 10 µM, first compound 0.1 µM) of the same molecule?
A: The viability, T/C was 28.3%.

Q: What about the viability, T/C (second compound 10 µM, first compound 0.316 µM) of the same molecule?
A: Its viability, T/C is 33.2%.

Q: And the viability, T/C (second compound 10 µM, first compound 1 µM)?
A: Its viability, T/C is 34%.

Q: And the viability, T/C (second compound 10 µM, first compound 3.16 µM)?
A: Its viability, T/C is 33.2%.

Q: And the viability, T/C (second compound 10 µM, first compound 10 µM)?
A: The viability, T/C was 32.3%.

Reference: PubChem BioAssay AID2060485 (Molecular Pharmacology Branch, DTP, NCI, 2025)
